The record followed here is publication PMC4279406, “Simultaneous targeting of PI3Kδ and a PI3Kδ-dependent MEK1/2-Erk1/2 pathway for therapy in pediatric B-cell acute lymphoblastic leukemia” (Oncotarget, 2014).

In one assay the target is T1, PI3Kα (Homo sapiens, UniProt P42336).
T1 construct: purchased Millipore (Kinase Profiler Services, United Kingdom)
Briefly: Kinase Profiler lipid kinase IC50. It is filed as biochemical. To be noted: ATP at Km of the isoform; 10-point half-log dilution from 1000 nM. As to the method:
(§1) Figure 1 Structure of X-370 and its inhibitory activity against lipid kinases (A) Chemical structure of X-370. (B) X-370 docked to the crystal structure of PI3Kδ. The model was generated based on the co-crystal structure of PI3Kδ and ZSTK474 (PDB ID: 2WXL). (C) IC50 of X-370 against PI3Kδ increased along with ATP concentration. […] Data was obtained from Kinase Profiler Services (Millipore, United Kingdom). Briefly, X-370 was solved in DMSO at a concentration of 10 mM, 10-point kinase inhibitory activity was measured over concentrations in a half-log dilution series started at 1000 nM with ATP at a concentration consistent with Km of each isoform of class I PI3K and IC50s were calculated. Relative kinase activity in the presence of 10 μM X-370 compared to DMSO control was measured for the rest of lipid kinases. TEXT PRINTED IN THE PICTURE: (D) X-370: IC50 (nM): 7 (Isoform: PI3Kδ); IC50 (nM): 433 (Isoform: PI3Kα); IC50 (nM): >1,000 (Isoform: PI3Kγ); IC50 (nM): >1,000 (Isoform: PI3Kβ); Relative Activity (%) X-370 (10 μM): 55 (Lipid Kinases: PI3KC2α); Relative Activity (%) X-370 (10 μM): 63 (Lipid Kinases: PI3KC2γ); Relative Activity (%) X-370 (10 μM): 105 (Lipid Kinases: PIP4K2α); Relative Activity (%) X-370 (10 μM): 100 (Lipid Kinases: PIP5K1α); Relative Activity (%) X-370 (10 μM): 103 (Lipid Kinases: PIP5K1γ) DOUBTS OF THE COPYIST ABOUT THIS PICTURE: Panel D, left table (Isoform / IC50): no substance label is printed in this table; assigned to X-370, the only label printed in the panel (head of the right table)
(§2) In vitro kinase profile assays were analyzed by the Kinase Profiler Service (Millipore, United Kingdom) following its guidelines. A GST-tagged human p110δ and regulatory full-length p85 were co-expressed in insect cell Sf9. Recombinant protein was extracted by affinity purification. The PI3K kinase activity was determined in the increasing concentration of ATP and X-370 with PI3-Kinase HTRF™ Assay kit (Millipore) as described previously.

For a further assay, the target named is T2, PI3Kβ (Homo sapiens, UniProt P42338).
T2 construct: purchased Millipore (Kinase Profiler Services, United Kingdom)
T2 sequence (P42338 whole entry): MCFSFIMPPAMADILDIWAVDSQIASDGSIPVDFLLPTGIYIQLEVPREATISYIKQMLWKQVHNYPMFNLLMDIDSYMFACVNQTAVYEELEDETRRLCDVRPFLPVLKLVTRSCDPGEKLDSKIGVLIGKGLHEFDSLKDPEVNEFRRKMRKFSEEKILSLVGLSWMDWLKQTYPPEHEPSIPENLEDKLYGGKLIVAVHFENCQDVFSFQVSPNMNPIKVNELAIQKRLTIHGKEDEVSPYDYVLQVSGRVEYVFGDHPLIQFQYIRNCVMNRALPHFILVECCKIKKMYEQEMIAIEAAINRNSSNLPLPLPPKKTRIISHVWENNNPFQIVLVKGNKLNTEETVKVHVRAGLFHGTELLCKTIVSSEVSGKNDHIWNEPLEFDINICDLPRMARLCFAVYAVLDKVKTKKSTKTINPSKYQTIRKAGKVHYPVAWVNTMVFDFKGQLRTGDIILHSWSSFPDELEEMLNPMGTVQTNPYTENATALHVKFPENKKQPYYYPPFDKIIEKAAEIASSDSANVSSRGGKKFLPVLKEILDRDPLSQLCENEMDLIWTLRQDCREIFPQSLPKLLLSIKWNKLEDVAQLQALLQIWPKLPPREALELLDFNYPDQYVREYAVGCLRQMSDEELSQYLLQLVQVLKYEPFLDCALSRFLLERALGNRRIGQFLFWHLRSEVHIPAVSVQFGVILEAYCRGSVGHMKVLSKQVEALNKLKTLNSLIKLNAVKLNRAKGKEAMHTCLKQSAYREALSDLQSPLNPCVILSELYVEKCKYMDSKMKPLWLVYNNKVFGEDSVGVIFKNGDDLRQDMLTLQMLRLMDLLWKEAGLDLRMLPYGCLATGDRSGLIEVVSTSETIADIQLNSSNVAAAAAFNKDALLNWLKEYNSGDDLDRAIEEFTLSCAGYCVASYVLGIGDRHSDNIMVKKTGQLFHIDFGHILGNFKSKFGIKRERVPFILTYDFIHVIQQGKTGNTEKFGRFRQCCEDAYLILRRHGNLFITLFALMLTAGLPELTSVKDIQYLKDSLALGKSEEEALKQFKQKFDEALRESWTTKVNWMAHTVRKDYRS
T2 sequence (P27986 whole entry partner): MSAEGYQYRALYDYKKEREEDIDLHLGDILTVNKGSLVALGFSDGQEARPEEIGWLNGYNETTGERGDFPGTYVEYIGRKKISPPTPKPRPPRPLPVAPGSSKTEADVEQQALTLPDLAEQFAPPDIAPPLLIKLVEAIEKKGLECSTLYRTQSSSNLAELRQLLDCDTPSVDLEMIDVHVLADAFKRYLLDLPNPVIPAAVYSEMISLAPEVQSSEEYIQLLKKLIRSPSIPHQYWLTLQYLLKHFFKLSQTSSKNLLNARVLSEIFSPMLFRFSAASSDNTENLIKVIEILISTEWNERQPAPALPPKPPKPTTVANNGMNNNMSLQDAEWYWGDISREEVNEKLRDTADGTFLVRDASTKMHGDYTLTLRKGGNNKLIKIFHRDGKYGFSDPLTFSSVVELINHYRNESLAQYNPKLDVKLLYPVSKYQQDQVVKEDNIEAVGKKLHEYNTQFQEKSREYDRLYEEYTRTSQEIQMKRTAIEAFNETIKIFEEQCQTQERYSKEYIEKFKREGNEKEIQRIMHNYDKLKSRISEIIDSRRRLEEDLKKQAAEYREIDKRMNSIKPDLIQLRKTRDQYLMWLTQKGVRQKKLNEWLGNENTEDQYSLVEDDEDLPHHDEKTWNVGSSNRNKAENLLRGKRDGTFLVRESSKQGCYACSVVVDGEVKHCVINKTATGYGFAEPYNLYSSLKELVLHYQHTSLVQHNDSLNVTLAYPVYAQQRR
Briefly: Kinase Profiler lipid kinase IC50. It is filed as biochemical. To be noted: ATP at Km of the isoform; 10-point half-log dilution from 1000 nM. As to the method:
as §1, §2

For a further assay, the target named is T3, PI3Kγ (Homo sapiens, UniProt P48736).
T3 construct: purchased Millipore (Kinase Profiler Services, United Kingdom)
T3 sequence (P48736 whole entry): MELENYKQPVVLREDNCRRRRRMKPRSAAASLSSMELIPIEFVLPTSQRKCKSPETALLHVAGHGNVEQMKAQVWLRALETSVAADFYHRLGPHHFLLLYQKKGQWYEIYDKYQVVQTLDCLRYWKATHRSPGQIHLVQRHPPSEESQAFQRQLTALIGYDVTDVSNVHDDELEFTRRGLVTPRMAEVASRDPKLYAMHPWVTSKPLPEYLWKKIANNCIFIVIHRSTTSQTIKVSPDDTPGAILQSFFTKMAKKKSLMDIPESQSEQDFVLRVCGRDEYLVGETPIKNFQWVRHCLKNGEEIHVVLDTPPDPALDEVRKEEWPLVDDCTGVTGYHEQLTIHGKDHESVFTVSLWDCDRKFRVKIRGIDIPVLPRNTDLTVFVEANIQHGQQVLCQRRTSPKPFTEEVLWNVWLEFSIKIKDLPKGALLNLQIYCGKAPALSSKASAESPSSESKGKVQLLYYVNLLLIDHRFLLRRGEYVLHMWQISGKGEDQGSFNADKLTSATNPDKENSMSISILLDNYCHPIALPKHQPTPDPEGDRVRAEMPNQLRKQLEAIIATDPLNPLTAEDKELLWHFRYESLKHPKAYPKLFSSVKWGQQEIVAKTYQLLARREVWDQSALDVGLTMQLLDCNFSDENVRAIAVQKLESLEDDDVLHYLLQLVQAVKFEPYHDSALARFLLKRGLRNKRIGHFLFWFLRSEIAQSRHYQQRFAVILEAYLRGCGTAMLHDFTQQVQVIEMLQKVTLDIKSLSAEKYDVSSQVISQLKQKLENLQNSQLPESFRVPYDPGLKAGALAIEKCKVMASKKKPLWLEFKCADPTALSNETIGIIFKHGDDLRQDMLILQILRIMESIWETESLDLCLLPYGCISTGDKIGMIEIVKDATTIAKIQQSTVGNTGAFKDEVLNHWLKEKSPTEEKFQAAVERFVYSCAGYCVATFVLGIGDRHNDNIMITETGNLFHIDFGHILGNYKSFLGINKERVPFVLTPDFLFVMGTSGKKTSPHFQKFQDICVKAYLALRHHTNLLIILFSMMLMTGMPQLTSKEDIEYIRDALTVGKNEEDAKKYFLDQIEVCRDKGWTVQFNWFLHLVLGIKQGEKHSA
Briefly: Kinase Profiler lipid kinase IC50. It is filed as biochemical. To be noted: ATP at Km of the isoform; 10-point half-log dilution from 1000 nM. As to the method: as §1, §2

The subject of assay [1] is PI3Kβ (LPA-stimulated MEF cells). The assay can be described thus: LPA-induced Akt phosphorylation in MEF cells. The format is cell-based, murine. To be noted: up to 0.5 μM; LPA 10 μM; 1 h pre-incubation. As to the method: In fibroblasts, signals from the insulin-like growth factor 1 (IGF-1) receptor are mediated by PI3Kα, while lysophosphatidic acid (LPA) stimulates G-protein coupled receptor (GPCR) signals via PI3Kβ[26]. After being pre-incubated with X-370, murine embryonic fibroblasts cultured in serum-free medium were stimulated with IGF-1 or LPA. […] Either PI3Kδ or PI3Kγ can be activated in THP-1 monocytes dependent on the stimulating ligand, among which macrophage colony stimulating factor (M-CSF/CSF-1) activates RTK-coupled PI3Kδ, while monocyte chemoattractant protein-1 (MCP-1) activates PI3Kγ [24]. Accordingly, THP-1 cells cultured in serum-free medium were stimulated with MCP-1 or M-CSF in the presence of X-370 and phosphorylated Akt was measured.
Cell lysates were probed with indicated antibodies. The IC50 values were calculated based on relative band intensity measured with ImageQuant™ TL (GE Healthcare Life Sciences, Piscataway, NJ) (B). Data shown are mean values from three independent experiments. (C, D, E, F) X-370 blocked stimuli-triggered PI3Kδ activation. MEF cells and THP-1 were starved in serum-free medium for 12 h or 4 h respectively and X-370 were added for an additional 1 h treatment following stimulation of IGF-1 at 100 ng/ml for MEF cells (C), LPA at 10 μM for MEF cells (D), MCP-1 at 100ng/ml for THP-1 (E) and M-CSF at 50 ng/ml for THP-1 (F). […]

Another assay has as its system Raji-R cells. Briefly: Proliferation of rituximab-resistant Raji-R cells (CCK-8). The format is cell-based, human. As to the method: Raji and SU-DHL-6 cells were treated with X-370 for 1 h (left panel) or treated with 0.5 μM X-370 for indicated times (middle panel). Right panel, Raji cells were incubated in fresh medium following treatment with 0.5 μM X-370 for 1 h. Indicated proteins were detected. (B) Raji-R (the rituximab-resistant derivatives of Raji cells) cells were resistant to X-370. The activity of X-370 on the proliferation of Raji parent and Raji-R cells was determined by CCK-8 assay as described in the methods section. (C) X-370 blocked phosphorylation of Akt but not Erk1/2 in Raji-R cells. Raji-R cells were treated with X-370 for 1h and indicated proteins were detected. Data shown are representative from three independent experiments.
Cell viability was assessed using Cell Counting Kit (CCK-8, Dojindo, Japan) following the manufacturer's protocol and OD values were measured with a Spectramax M5 plate reader (Molecular Devices, Sunnyvale, CA)[45].

One may read the IC50 as the concentration that gives 50% inhibition. A lower IC50 goes with inhibition by little substance.

T1 sequence (P42336 whole entry): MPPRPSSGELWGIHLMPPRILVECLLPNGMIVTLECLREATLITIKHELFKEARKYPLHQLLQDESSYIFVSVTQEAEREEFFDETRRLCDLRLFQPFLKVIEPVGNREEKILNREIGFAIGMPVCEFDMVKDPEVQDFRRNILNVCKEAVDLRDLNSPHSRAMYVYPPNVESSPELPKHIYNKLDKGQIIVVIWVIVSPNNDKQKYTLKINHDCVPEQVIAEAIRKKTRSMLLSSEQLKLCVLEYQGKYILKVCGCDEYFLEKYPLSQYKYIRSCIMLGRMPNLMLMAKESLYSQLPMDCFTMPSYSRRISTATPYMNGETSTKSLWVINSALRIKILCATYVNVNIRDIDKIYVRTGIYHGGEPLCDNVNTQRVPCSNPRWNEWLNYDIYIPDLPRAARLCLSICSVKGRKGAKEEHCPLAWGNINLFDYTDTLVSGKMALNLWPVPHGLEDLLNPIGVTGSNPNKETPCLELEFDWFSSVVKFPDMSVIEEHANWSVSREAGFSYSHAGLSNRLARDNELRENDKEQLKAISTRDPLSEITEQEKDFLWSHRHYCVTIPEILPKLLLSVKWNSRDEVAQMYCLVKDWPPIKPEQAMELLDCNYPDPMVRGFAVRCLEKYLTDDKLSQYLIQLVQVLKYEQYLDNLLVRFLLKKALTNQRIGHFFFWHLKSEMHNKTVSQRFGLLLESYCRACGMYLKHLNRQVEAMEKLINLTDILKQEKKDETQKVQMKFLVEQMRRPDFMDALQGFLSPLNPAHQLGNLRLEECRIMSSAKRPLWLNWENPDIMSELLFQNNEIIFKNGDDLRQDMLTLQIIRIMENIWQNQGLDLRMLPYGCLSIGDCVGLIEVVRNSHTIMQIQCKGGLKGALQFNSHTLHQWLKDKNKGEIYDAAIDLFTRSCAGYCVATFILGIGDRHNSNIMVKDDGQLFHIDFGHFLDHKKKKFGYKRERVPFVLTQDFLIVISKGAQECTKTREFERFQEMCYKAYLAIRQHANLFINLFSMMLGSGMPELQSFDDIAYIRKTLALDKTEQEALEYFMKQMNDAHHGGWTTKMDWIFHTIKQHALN
T1 sequence (P27986 whole entry partner): as the sequence (P27986 whole entry partner) above

With `O=C(N1CCCC1)N1CCC(n2cnc3c(-n4c(C(F)F)nc5ccccc54)nc(N4CCOCC4)nc32)CC1` [X-370], the results for the IC50 against PI3Kα, against PI3Kβ and against PI3Kγ were 433 nM, more than 1000 nM and more than 1000 nM, respectively. The “LPA-induced Akt phosphorylation” value in assay [1] is listed as “partially inhibited”. The “sensitivity of proliferation compared to parental Raji cells” value in the assay with Raji-R cells is on record as “resistant”.
